Measured values reported in PMC12040169 (PLOS Biology, 2025).

assay: in vitro; conditions: human, hela cells, % viability

| SMILES | viability at 28.5 h, 10 µM |
| --- | --- |
| COC(=O)c1c(NC(=S)NCc2cccs2)sc(C)c1-c1ccccc1 [CBK266943] | 97% |
| Fc1cccc(C2NC(S)=NC3=C2N2CCC3CC2)c1 (stereo not shown) [CBK288503] | 88.2% |
| Cc1cc(NC(=O)c2ccc(Br)cc2)nc2c1c(=O)oc1ccccc12 [CBK291262] | 102% |
| CCc1ccc(OCc2nnc(SCC(=O)NCCCC(=O)O)n2CC(C)C)cc1 [CBK295321] | 101% |
| CN1CCC(CNC(=O)C2(c3ccccc3F)CC2)(N(C)C)CC1 [CBK282604] | 91.6% |
| CCn1c(=O)n(CC(=O)N2CCC(C)CC2)c2cccnc21 [CBK283895] | 95.9% |
| CC(C)(CN)CN(Cc1ccccc1C(F)(F)F)C(=O)Nc1ccc(Cl)cc1Cl [CBK026832C] | 93.5% |
| CN(C)CCN(C)c1cncc(-c2cccc(/C=C/C(=O)O)c2)n1 [CBK065451] | 99.5% |
| CCN(CC)c1nc2n(c(=O)n1)CCN2CC [CBK027342] | 94.9% |
| Cc1ccc(Cl)c(NC(=O)NCCN2CCN(c3ccccc3[N+](=O)[O-])CC2)c1 [CBK267293] | 94.5% |
| NCCCNCCOc1ccc(Cl)c(Cl)c1 [CBK268631C] | 111% |
| O=C(CCCOc1ccc(Cl)cc1)n1ccn(CCc2cccs2)c1=O [CBK106614] | 104% |
| O=C(CCOc1ccc(F)cc1)Nc1cnc(-c2ccc(F)cc2)c(-c2ccoc2)n1 [CBK037166] | 91.9% |
| O=C(COc1ccc(Br)cc1)N1CCN(Cc2ccncc2)CC1 [CBK073259] | 98.1% |
| O=C(NCCn1nc(-c2cccs2)ccc1=O)c1ccccc1F [CBK283835] | 86.1% |
| O=C(c1[nH]c2ccccc2c1NS(=O)(=O)Cc1ccccc1)N1CCOCC1 [CBK050067] | 99.5% |
| CCOc1ccc(S(=O)(=O)NCCCN2CCOCC2)c2ccccc12 [CBK018421] | 89.8% |
| COc1ncc(-c2ccc(Nc3ccc(N4CCOCC4)cc3)nc2)c(OC)n1 [CBK036988] | 95% |
| CCN1CCN(c2ccc([N+](=O)[O-])cc2S(=O)(=O)N2CCOCC2)CC1 [CBK264410] | 113% |
| O=C(O)c1cccc(Sc2nc3cc(Cl)c(Cl)cc3nc2N2CCCC2)c1 [CBK093588] | 118% |
| CCC(C)c1ccc(NC(=O)c2cccnc2)cc1 (stereo not shown) [CBK057967] | 85.9% |
| O=C(CN1CCCCC1)Nc1ccc(NC(=O)CN2CCCCC2)c(Cl)c1 [CBK264173] | 111% |

| SMILES | viability at 28.5 h, 10 µM |
| --- | --- |
| O=C(CNC(=O)c1ccco1)Nc1cccc(-c2nc3ccccc3s2)c1 [CBK295142] | 85.4% |
| CN1CCN(CCCCn2nc3n(c2=O)-c2ccccc2OC3(C)C)CC1 [CBK023953C] | 95.8% |
| COC(=O)c1cc(OC)c(OC)cc1NC(=S)N1CCC(C(N)=O)CC1 [CBK268507] | 93.3% |
| NC(=O)CN1CC(O)CC1=O (stereo not shown) [CBK011649] | 86.1% |
| COc1ccc(C)cc1S(=O)(=O)Nc1cc(NCCCN2CCOCC2)c2occc2c1 [CBK067837C] | 105% |
| CC(Sc1nc2ccccc2c(=O)n1C1CC1)C(=O)N1CCOCC1 (stereo not shown) [CBK306045] | 79.5% |
| CC(C)(C)c1cc(C(=O)NCC2CCCN2)n(Cc2ccc(Cl)cc2Cl)n1 (stereo not shown) [CBK115920C] | 96.1% |
| CCCCNc1cc(N2CCN(c3cnn(C)c3)C(=O)C2)nc(N)n1 [CBK306260] | 87.8% |
| CCS(=O)(=O)c1ccc2oc([C@H]3CCN(S(=O)(=O)c4ccccc4)C3)nc2c1 [CBK289382] | 88.2% |
| Cc1ccc(NC(=O)CSCc2nc3ccccc3[nH]2)cc1 [CBK267299] | 108% |
| Cc1oc(C(C)(C)C)cc1C(=O)Nc1ccc(C(F)(F)F)cc1 [CBK057251] | 87% |
| Cn1c(=O)c2c(nc(NCc3ccc4c(c3)OCO4)n2Cc2cccc(Cl)c2)n(C)c1=O [CBK074359] | 96.4% |
| c1ccc2c(Sc3cnccn3)cccc2c1 [CBK085841] | 90.7% |
| Cc1cc(C2(C(F)(F)F)C=C3c4ccccc4CC(C)(C)N3C2=O)cc(C)c1O (stereo not shown) [CBK017463] | 99.2% |
| Cc1cc(C)nc(N2CCC(CC(=O)N(C)CC(C)c3ccccc3)CC2)n1 (stereo not shown) [CBK286105] | 83.5% |
| Cc1ccc(S(=O)(=O)CCc2noc(-c3n[nH]c4ccccc34)n2)cc1 [CBK288598] | 104% |
| Cc1c(C(C)NCC2CCN(C)CC2)cnn1-c1ccc(C#N)cc1 (stereo not shown) [CBK304058] | 97.3% |
| OCC1CCCN1c1nccnc1-c1ccccc1F (stereo not shown) [CBK038037] | 104% |
| COCCn1c(SCC(=O)N2CCCc3ccccc32)nc(O)cc1=O [CBK304191] | 59.5% |
| Cc1ccc(S(=O)(=O)NC(C)C(=O)Nc2cc(-c3nc4ccccc4[nH]3)ccc2C)cc1 (stereo not shown) [CBK110320] | 96.2% |
| Cc1cc(C)cc(OCc2nnc(SCC(=O)N3CCN(c4ccccc4)CC3)o2)c1 [CBK268012] | 96.7% |
| COc1ccccc1C1(O)CCCC2CN(C(C)=O)CC21 (stereo not shown) [CBK283134] | 102% |

| SMILES | viability at 28.5 h, 10 µM |
| --- | --- |
| Nc1csc(C2CCOCC2)n1 [CBK019258] | 77.3% |
| CCOC(=O)c1sc(NS(=O)(=O)c2cccc3cccnc23)nc1C [CBK047443] | 91.6% |
| NC(=O)C1(N2CCCCC2)CCN(CC(=O)Nc2ccccc2Sc2ccccc2)CC1 [CBK268488] | 94.7% |
| CCOC(=O)Cn1[nH]c(CO)c(Cc2c(Cl)cccc2Cl)c1=O [CBK103580] | 92.2% |
| CC1=CC(C)C(C(=O)O)C(C(=O)NCc2cccnc2)C1 (stereo not shown) [CBK293964] | 113% |
| Nc1ncc(-c2cccc(OC(F)(F)F)c2)nc1-c1ccc(C(=O)N2CCOCC2)cc1 [CBK064091] | 96.8% |
| O=C(CCCc1nc2ccccc2c(=O)[nH]1)NC(Cc1ccc(O)cc1)C(=O)O (stereo not shown) [CBK297130] | 101% |
| COc1ccc(CC(=O)N2CCC[C@@H](N)[C@@H]2c2ccccc2F)cc1 [CBK283456] | 102% |
| COc1ccc(-c2cc(=O)oc3cc(OCC(=O)c4cc5ccccc5o4)ccc23)cc1 [CBK265634] | 97.7% |
| CC(C(=O)Nc1ccc(S(N)(=O)=O)cc1)N(C)Cc1cccs1 (stereo not shown) [CBK305945] | 88.8% |
| c1csc(CNc2nc3ccccc3n2CCN2CCOCC2)c1 [CBK262462] | 109% |
| O=C(c1ccccc1F)N1CCC(O)(c2ccc(F)cc2)CC1 [CBK281943] | 80.9% |
| CC(NC(=O)c1ccccc1Cn1cncn1)C1CC2CCC1C2 (stereo not shown) [CBK281654] | 85.8% |
| O=C(CSCC(=O)Nc1ccc2ccccc2c1)NCC1CCCO1 (stereo not shown) [CBK058183] | 89.6% |
| Cc1ccn2c(C(=O)N(C)CCc3noc(C(C)C)n3)nnc2n1 [CBK306670] | 89.3% |
| O=C1N/C(=C/c2cccs2)C(=O)N1Cc1ccccc1F [CBK265601] | 109% |
| O=C(O)CNS(=O)(=O)c1c(F)c(F)c(F)c(F)c1F [CBK269986] | 84.6% |
| O=c1[nH]nc2c(N3CCc4ccccc4C3)nccn12 [CBK288497] | 80.9% |
| Cn1c(N2CC[C@H](O)C2)nc2cc(C(=O)NCCn3cccc3)ccc21 [CBK307480] | 83.6% |
| Cc1nn(C)cc1-c1cncn1CCCC(C)(C)CO [CBK281492] | 86.1% |
| O=C(c1cnn(-c2ccc(Cl)cc2)c1C(F)(F)F)N1CCN(c2ncccn2)CC1 [CBK107448] | 98% |
| CC(C)(C)C(=O)N[C@H]1CO[C@H]2[C@@H]1OC[C@@H]2Nc1nccc(C2CCCC2)n1 [CBK289530] | 115% |

| SMILES | viability at 28.5 h, 10 µM |
| --- | --- |
| COc1c(C(=O)Nc2ccc(CN3CCOCC3)cc2)cc2ccccc2c1Br [CBK268593] | 103% |
| O=C(O)[C@@H]1CCN(Cc2ccccc2)C[C@H]1c1ccccc1 [CBK286840] | 102% |
| O=[N+]([O-])c1ccc(NCCNC(=S)Nc2ccc(Cl)cc2)nc1 [CBK263594] | 85.8% |
| CCOc1ccccc1-c1ccccc1NC(=O)c1nc2ccccc2n(C)c1=O [CBK285855] | 90.1% |
| COc1ccc2c(c1)C1(CC(=O)N(C)C1=O)C(=O)N2CC(=O)O (stereo not shown) [CBK076118] | 100% |
| O=c1ccn([C@@H]2O[C@H](CO)[C@H](O)C2O)c(=O)[nH]1 (stereo partly shown) [CBK201159] | 95.1% |
| O=C(Nc1nc(-c2ccccc2)cs1)c1ccc(Br)cc1 [CBK068003] | 82.4% |
| COc1ccc(N2C(=O)C3C(CC(C)C)NC4(C(=O)N(CC(=O)Nc5ccc(C)cc5)c5ccccc54)C3C2=O)cc1 (stereo not shown) [CBK266034] | 95.9% |
| O=c1[nH]nc2ccc(S(=O)(=O)N3CCCCC3)cn12 [CBK288459] | 89.5% |
| COc1ccc2ncc3c(-c4ccccc4)n[nH]c3c2c1 [CBK288052] | 93.3% |
| CC(=O)c1c(-c2ccc(C)cc2)nc2n(CCN3CCCCC3)c3ccccc3n12 [CBK278231C] | 101% |
| O=c1n(-c2ccc(OC(F)(F)F)cc2)ccn1S(=O)(=O)c1ccc(Cl)c(Cl)c1 [CBK106656] | 94.7% |
| COc1ccc(S(=O)(=O)N(C)CC(=O)O)c2ccccc12 [CBK268459] | 105% |
| CCCc1oc(C(=O)O)cc1CN1CCCCC1 [CBK267973C] | 99% |
| O/N=C/c1ccc(-c2cc(Cl)ccc2Cl)o1 [CBK288500] | 92.6% |
| Cc1cc(C(=O)N2CC3CCCC(O)(c4cccn4C)C3C2)c(C)[nH]1 (stereo not shown) [CBK284514] | 93.9% |
| CCOC(=O)c1c(C)n(-c2ccc(C)cc2)c2ccc(O)c(CN(C)C)c12 [CBK263499C] | 78.5% |
| CC(C)N(CCC(c1ccccc1)c1cc(Br)ccc1OCc1ccccc1)C(C)C (stereo not shown) [CBK017656] | 79.4% |
| CN1C2C=C(N(CCc3ccccc3)C(=O)c3ccc(-c4ccccc4)cc3)CC1CC2 (stereo not shown) [CBK262596C] | 104% |
| CC(=O)OC(C(=O)N1CCCCCC1)c1ccc(Br)cc1 (stereo not shown) [CBK007027] | 109% |
| O=c1[nH]nc(SCCOc2c(Cl)c(Cl)c(Cl)c(Cl)c2Cl)c(=O)[nH]1 [CBK262794] | 91% |
| COc1cc(NS(=O)(=O)c2cc(C(=O)O)c(Cl)cc2Cl)cc(OC)c1 [CBK113162] | 98.9% |
